{
  "source": "BindingDB's records for doi:10.1016/j.ejmech.2009.09.045",
  "about": "(Sri Venkateswara University, 2010)",
  "data": [
    {"molecular_target": "T1, Catalase (Rattus norvegicus, UniProt P04762)", "T1 sequence (P04762 whole entry)": "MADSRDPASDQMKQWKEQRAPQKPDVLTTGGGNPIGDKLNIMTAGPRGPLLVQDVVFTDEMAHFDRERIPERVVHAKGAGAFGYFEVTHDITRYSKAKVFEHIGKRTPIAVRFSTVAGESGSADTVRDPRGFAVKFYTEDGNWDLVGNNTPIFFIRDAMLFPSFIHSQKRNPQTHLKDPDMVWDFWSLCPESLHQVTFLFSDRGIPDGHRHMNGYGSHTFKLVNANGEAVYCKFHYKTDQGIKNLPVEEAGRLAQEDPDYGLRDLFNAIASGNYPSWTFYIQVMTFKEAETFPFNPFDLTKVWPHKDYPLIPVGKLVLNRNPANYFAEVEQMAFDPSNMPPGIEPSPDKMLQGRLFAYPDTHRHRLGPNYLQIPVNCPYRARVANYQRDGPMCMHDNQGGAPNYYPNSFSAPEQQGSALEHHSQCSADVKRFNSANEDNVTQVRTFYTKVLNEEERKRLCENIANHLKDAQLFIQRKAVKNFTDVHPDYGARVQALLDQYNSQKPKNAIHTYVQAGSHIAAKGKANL", "assay": "Inhibition of catalase in Wistar rat brain", "units": {"EC50": "µM"}, "values": [
      {"smiles": "COc1ccc2c3c1O[C@H]1C[C@@H](OP(=O)(NCCO)Oc4ccc([N+](=O)[O-])cc4)C=C[C@@]31CCN(C)C2", "note": "(some centres not stated)", "EC50": 9.29},
      {"smiles": "COc1ccc2c3c1O[C@H]1C[C@@H](OP(=O)(OCCO)Oc4ccc([N+](=O)[O-])cc4)C=C[C@@]31CCN(C)C2", "note": "(some centres not stated)", "EC50": 6.15},
      {"smiles": "COc1ccc2c3c1O[C@H]1C[C@@H](OP(=O)(OCCO)N(CCCl)CCCl)C=C[C@@]31CCN(C)C2", "note": "(some centres not stated)", "EC50": 4.12},
      {"smiles": "COc1ccc2c3c1O[C@H]1C[C@@H](OP(=O)(Oc4ccc([N+](=O)[O-])cc4)OP(=O)(O)O)C=C[C@@]31CCN(C)C2", "note": "(some centres not stated)", "EC50": 5.13},
      {"smiles": "COc1ccc2c3c1O[C@H]1C[C@@H](OP(=O)(OP(=O)(O)O)N(CCCl)CCCl)C=C[C@@]31CCN(C)C2", "note": "(some centres not stated)", "EC50": 3.81},
      {"smiles": "COc1ccc2c3c1O[C@H]1C[C@@H](OP(=O)(Oc4ccc([N+](=O)[O-])cc4)SCCO)C=C[C@@]31CCN(C)C2", "note": "(some centres not stated)", "EC50": 7.74},
      {"smiles": "COc1ccc2c3c1O[C@H]1C[C@@H](OP(=O)(NCCO)N(CCCl)CCCl)C=C[C@@]31CCN(C)C2", "note": "(some centres not stated)", "EC50": 2.84},
      {"smiles": "COc1ccc2c3c1O[C@H]1C[C@@H](O)C=C[C@@]31CCN(C)C2", "note": "[galantamine]", "EC50": 17.6},
      {"smiles": "COc1ccc2c3c1O[C@H]1C[C@@H](OP(=O)(NCCN)Oc4ccc([N+](=O)[O-])cc4)C=C[C@@]31CCN(C)C2", "note": "(some centres not stated)", "EC50": 3.41},
      {"smiles": "Cc1c(C)c2c(c(C)c1O)CC[C@@](C)(CCC[C@H](C)CCC[C@H](C)CCCC(C)C)O2", "note": "[CHEBI:18145]", "EC50": 3.43},
      {"smiles": "COc1ccc2c3c1O[C@H]1C[C@@H](OP(=O)(SCCO)N(CCCl)CCCl)C=C[C@@]31CCN(C)C2", "note": "(some centres not stated)", "EC50": 3.02},
      {"smiles": "COc1ccc2c3c1O[C@H]1C[C@@H](OP(=O)(NCCN)N(CCCl)CCCl)C=C[C@@]31CCN(C)C2", "note": "(some centres not stated)", "EC50": 5.11}
    ]}
  ]
}
